From ChEMBL document CHEMBL1126082, “Nucleosides and nucleotides. 107. 2-(cycloalkylalkynyl)adenosines: adenosine A2 receptor agonists with potent antihypertensive effects” (J Med Chem, 1992)
pKi: −log10 of the molar value.

Assays:
Rattus norvegicus [1] = test: Dose producing 30% decrease in blood pressure of anesthetized spontaneous hypertensive male rat(SHR); assay type: functional
Rattus norvegicus [2] = test: Dose producing 10% decrease in heart rate of anaesthetized spontaneous hypertensive male rat(SHR); assay type: functional
Adenosine A2 receptor = Adenosine A2 receptor (Rattus norvegicus, UniProt P29276+P30543)
Description: Inhibition of [3H]NECA binding to adenosine A2 receptor from rat striatal membranes

Adenosine receptor A1 = target: T1, Adenosine receptor A1 (Rattus norvegicus, UniProt P25099); test: Inhibition of [3H]CHA binding to adenosine A1 receptor from rat brain membranes; assay type: cell membranes, Membrane
T1 sequence (P25099 whole entry): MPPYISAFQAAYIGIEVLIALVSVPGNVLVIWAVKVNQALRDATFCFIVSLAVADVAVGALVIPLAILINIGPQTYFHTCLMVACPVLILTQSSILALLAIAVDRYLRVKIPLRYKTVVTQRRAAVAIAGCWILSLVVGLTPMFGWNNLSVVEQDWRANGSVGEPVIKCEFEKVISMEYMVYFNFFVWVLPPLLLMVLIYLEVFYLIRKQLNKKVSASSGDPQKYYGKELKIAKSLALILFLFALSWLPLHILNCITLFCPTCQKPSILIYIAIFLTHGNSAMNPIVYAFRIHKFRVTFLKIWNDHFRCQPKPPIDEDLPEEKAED

| Compound | ED30 (Rattus norvegicus [1]) | ED10 (Rattus norvegicus [2]) | pKi (Adenosine A2 receptor) | pKi (Adenosine receptor A1) | Ki (Adenosine A2 receptor) |
| --- | --- | --- | --- | --- | --- |
| CCNC(=O)[C@H]1O[C@@H](n2cnc3c(N)nc(NCCc4ccc(CCC(=O)O)cc4)nc32)[C@H](O)[C@@H]1O [CGS-21680] | 0.97 µg/kg | > 100 µg/kg |  |  |  |
| COc1cc(OC)cc(C(CNc2ncnc3c2ncn3[C@@H]2O[C@H](CO)[C@@H](O)[C@H]2O)c2ccccc2C)c1 (stereo not given in full) |  | > 100 µg/kg | 8.16 | 6.97 |  |
| CCCCC#Cc1nc(N)c2ncn([C@@H]3O[C@H](CO)[C@@H](O)[C@H]3O)c2n1 | 0.11 µg/kg | 67 µg/kg |  |  |  |
| Nc1nc(C#Cc2ccccc2)nc2c1ncn2[C@@H]1O[C@H](CO)[C@@H](O)[C@H]1O | 10.1 µg/kg | > 100 µg/kg |  | 6.15 | 109 nM |
| Nc1nc(C#CC2(O)CCCCCCC2)nc2c1ncn2[C@@H]1O[C@H](CO)[C@@H](O)[C@H]1O | 0.01 µg/kg | 13 µg/kg |  |  |  |
| Nc1nc(C#CC(O)c2ccccc2)nc2c1ncn2[C@@H]1O[C@H](CO)[C@@H](O)[C@H]1O (stereo not given in full) | 0.05 µg/kg | 1.3 µg/kg |  | 8.47 | 1.9 nM |
| CCCC(O)C#Cc1nc(N)c2ncn(C3O[C@H](CO)[C@@H](O)[C@H]3O)c2n1 (stereo not given in full) | 0.04 µg/kg | 0.83 µg/kg |  | 7.80 | 1.8 nM |
| Nc1nc(C#CCC2CCCC2)nc2c1ncn2[C@@H]1O[C@H](CO)[C@@H](O)[C@H]1O | 0.05 µg/kg | > 100 µg/kg |  |  | 2.3 nM |
| Nc1nc(C#CCCC2CCCCC2)nc2c1ncn2C1O[C@H](CO)[C@@H](O)[C@H]1O (stereo not given in full) | 0.48 µg/kg | > 100 µg/kg |  | 6.50 | 26 nM |
| Nc1nc(C#CCCC2CCCC2)nc2c1ncn2C1O[C@H](CO)[C@@H](O)[C@H]1O (stereo not given in full) | 0.16 µg/kg | > 100 µg/kg |  | 6.87 | 3.4 nM |
| CCCCCC(O)C#Cc1nc(N)c2ncn(C3O[C@H](CO)[C@@H](O)[C@H]3O)c2n1 (stereo not given in full) | 0.06 µg/kg | 0.45 µg/kg |  | 7.96 | 2 nM |
| CC(C)(O)C#Cc1nc(N)c2ncn([C@@H]3O[C@H](CO)[C@@H](O)[C@H]3O)c2n1 | 0.14 µg/kg | 1.4 µg/kg |  | 7.49 | 19 nM |
| Nc1nc(C#CC2(O)CCCC2)nc2c1ncn2C1O[C@H](CO)[C@@H](O)[C@H]1O (stereo not given in full) | 0.07 µg/kg | 1.6 µg/kg |  | 7.96 | 3.3 nM |
| Nc1nc(C#CCO)nc2c1ncn2[C@@H]1O[C@H](CO)[C@@H](O)[C@H]1O | 0.36 µg/kg | 0.74 µg/kg |  | 8.08 | 20 nM |
| Nc1nc(C#CC2(O)CCCCC2)nc2c1ncn2[C@@H]1O[C@H](CO)[C@@H](O)[C@H]1O | 0.02 µg/kg | 3.5 µg/kg |  |  |  |
| Nc1nc(C#CCCc2ccccc2)nc2c1ncn2[C@@H]1O[C@H](CO)[C@@H](O)[C@H]1O | 1.21 µg/kg | > 100 µg/kg |  | 6.40 | 37 nM |
| Nc1nc(C#CC2CCCCC2)nc2c1ncn2C1O[C@H](CO)[C@@H](O)[C@H]1O (stereo not given in full) | 0.36 µg/kg | > 100 µg/kg |  | 6.86 | 10 nM |
| Nc1nc(C#CC2(O)CCCCCC2)nc2c1ncn2[C@@H]1O[C@H](CO)[C@@H](O)[C@H]1O | 0.02 µg/kg | 5.6 µg/kg |  | 7.57 | 1.1 nM |
| Nc1nc(C#CC2CCCC2)nc2c1ncn2[C@@H]1O[C@H](CO)[C@@H](O)[C@H]1O | 0.29 µg/kg | > 100 µg/kg |  | 7.06 | 12 nM |
| Nc1nc(C#CCCCC2CCCCC2)nc2c1ncn2C1O[C@H](CO)[C@@H](O)[C@H]1O (stereo not given in full) | 1.64 µg/kg | > 100 µg/kg |  | < 6.64 | 46 nM |
| Nc1nc(C#CCC2CCCCC2)nc2c1ncn2C1O[C@H](CO)[C@@H](O)[C@H]1O (stereo not given in full) | 0.15 µg/kg | > 100 µg/kg |  |  |  |
| CCCCCCC#Cc1nc(N)c2ncn([C@@H]3O[C@H](CO)[C@@H](O)[C@H]3O)c2n1 | 0.2 µg/kg | > 100 µg/kg |  | 6.88 | 7.9 nM |
| CC(O)C#Cc1nc(N)c2ncn([C@@H]3O[C@H](CO)[C@@H](O)[C@H]3O)c2n1 (stereo not given in full) | 0.15 µg/kg | 0.8 µg/kg |  | 7.82 | 18 nM |
